# In patent EP0908457B1, “3-(1,2-benzisothiazol- and isoxazol-5-Y1)-2,4(1H,3H)-pyrimidinedione or thione and 3-(1,2-benzisothiazol- and isoxazol-5-y1)-4(3H)-pyrimidinone or thione herbicidal agents” (BASF AKTIENGESELLSCHAFT, priority 1997, dated 1999):
# Columns and labels:
# [1] = test system: Sagittaria pygmaea, L.; assay: Postemergence weed control under flooded paddy conditions, SAGPY (Arrowhead (Pygmaea)); type: in vivo; details: rated three to four weeks after treatment
# [2] = test system: Monochoria vaginalis, Presl.; assay: Preemergence weed control under flooded paddy conditions, MOOVA (Monochoria); type: in vivo; details: flooded paddy; for MOOVA: preemergence weeds, herbicidal effect rating 0-9, three to four weeks after treatment; for herbicidal effect rating, MOOVA: preemergence, rated 3-4 weeks after treatment
# [3] = test system: Sagittaria pygmaea, L.; assay: Preemergence weed control under flooded paddy conditions, SAGPY (Arrowhead (Pygmaea)); type: in vivo; details: flooded paddy; for SAGPY: preemergence weeds, herbicidal effect rating 0-9, three to four weeks after treatment; for herbicidal effect rating, SAGPY: preemergence, rated 3-4 weeks after treatment
# [4] = test system: Cyperus serotinus, Rottb.; assay: Postemergence weed control under flooded paddy conditions, CYPSE (Flatsedge); type: in vivo; details: rated three to four weeks after treatment
# [5] = test system: Cyperus iria; assay: Preemergence weed control under flooded paddy conditions, CYPIR (Rice Flatsedge); type: in vivo; details: flooded paddy; for CYPIR: preemergence weeds, herbicidal effect rating 0-9, three to four weeks after treatment; for herbicidal effect rating, CYPIR: preemergence, rated 3-4 weeks after treatment
# [6] = test system: Monochoria vaginalis, Presl.; assay: Postemergence weed control under flooded paddy conditions, MOOVA (Monochoria); type: in vivo; details: rated three to four weeks after treatment
# [7] = test system: Echinochloa oryzoides (Ard.) Fritsch.; assay: Preemergence weed control under flooded paddy conditions, ECHORC (Watergrass (Calif.)); type: in vivo; details: flooded paddy; for ECHORC: preemergence weeds, herbicidal effect rating 0-9, three to four weeks after treatment; for herbicidal effect rating, ECHORC: preemergence, rated 3-4 weeks after treatment
# [8] = test system: Cyperus serotinus, Rottb.; assay: Preemergence weed control under flooded paddy conditions, CYPSE (Flatsedge); type: in vivo; details: for CYPSE: preemergence weeds, herbicidal effect rating 0-9, three to four weeks after treatment; for herbicidal effect rating, CYPSE: preemergence, rated 3-4 weeks after treatment
# [9] = test system: Oryza sativa, (L.) Tebonnet; assay: Rice tolerance to post-transplant applications under flooded paddy conditions (Example 188), ORYSAT (Rice, Tebonnet); details: rated three to four weeks after treatment
# [10] = test system: Cyperus iria; assay: Postemergence weed control under flooded paddy conditions, CYPIR (Rice Flatsedge); type: in vivo; details: rated three to four weeks after treatment
# [11] = test system: Oryza sativa, (L.) Tebonnet; assay: Rice tolerance to post-transplant applications under flooded paddy conditions (Example 187), ORYSAT (Rice, Tebonnet); details: for ORYSAT: herbicidal effect rating 0-9, three to four weeks after treatment; for herbicidal effect rating ORYSAT: rated 3-4 weeks after treatment; as to herbicidal effect rating ORYSAT: meaning of each grade not given here
# [12] = test system: Echinochloa oryzoides (Ard.) Fritsch.; assay: Postemergence weed control under flooded paddy conditions, ECHORC (Watergrass (Calif.)); type: in vivo; details: rated three to four weeks after treatment
smiles,measurement,setting,value
"COc1ccc(I)cc1-c1nsc2ccc(-n3c(=O)cc(C(F)(F)F)n(C)c3=O)cc12 [Example 448, 2,4(1H,3H)-Pyrimidinedione, 3-[3-(5-iodo-2-methoxyphenyl)-1,2-benzisothiazol-5-yl]-1-methyl-6-(trifluoromethyl)-]","herbicidal effect rating, SAGPY",[1]; Rate 0.0620 kg/ha,0.0
same,"herbicidal effect rating, SAGPY",[1]; Rate 0.1250 kg/ha,0.0
same,"herbicidal effect rating, SAGPY",[1]; Rate 0.2500 kg/ha,0.0
same,MOOVA,[2]; 0.0320 kg/ha,9.0
same,MOOVA,[2]; 0.0620 kg/ha,9.0
same,MOOVA,[2]; 0.1250 kg/ha,9.0
same,MOOVA,[2]; 0.2500 kg/ha,9.0
same,SAGPY,[3]; 0.0320 kg/ha,0.0
same,SAGPY,[3]; 0.0620 kg/ha,1.5
same,SAGPY,[3]; 0.1250 kg/ha,2.5
same,SAGPY,[3]; 0.2500 kg/ha,3.5
same,"herbicidal effect rating, CYPSE",[4]; Rate 0.0620 kg/ha,0.0
same,"herbicidal effect rating, CYPSE",[4]; Rate 0.1250 kg/ha,0.0
same,"herbicidal effect rating, CYPSE",[4]; Rate 0.2500 kg/ha,0.0
same,CYPIR,[5]; 0.0320 kg/ha,8.5
same,CYPIR,[5]; 0.0620 kg/ha,9.0
same,CYPIR,[5]; 0.1250 kg/ha,9.0
same,CYPIR,[5]; 0.2500 kg/ha,9.0
same,"herbicidal effect rating, MOOVA",[6]; Rate 0.0620 kg/ha,0.0
same,"herbicidal effect rating, MOOVA",[6]; Rate 0.1250 kg/ha,1.0
same,"herbicidal effect rating, MOOVA",[6]; Rate 0.2500 kg/ha,4.0
same,ECHORC,[7]; 0.0320 kg/ha,9.0
same,ECHORC,[7]; 0.0620 kg/ha,9.0
same,ECHORC,[7]; 0.1250 kg/ha,9.0
same,ECHORC,[7]; 0.2500 kg/ha,9.0
same,CYPSE,[8]; 0.0320 kg/ha,4.5
same,CYPSE,[8]; 0.0620 kg/ha,4.5
same,CYPSE,[8]; 0.1250 kg/ha,4.5
same,CYPSE,[8]; 0.2500 kg/ha,6.5
same,"herbicidal effect rating, ORYSAT (rice tolerance)",[9]; Rate 0.0620 kg/ha,0.0
same,"herbicidal effect rating, ORYSAT (rice tolerance)",[9]; Rate 0.1250 kg/ha,1.0
same,"herbicidal effect rating, ORYSAT (rice tolerance)",[9]; Rate 0.2500 kg/ha,2.0
same,"herbicidal effect rating, CYPIR",[10]; Rate 0.1250 kg/ha,7.0
same,"herbicidal effect rating, CYPIR",[10]; Rate 0.2500 kg/ha,9.0
same,ORYSAT,[11]; 0.0320 kg/ha,3.5
same,ORYSAT,[11]; 0.0620 kg/ha,4.0
same,ORYSAT,[11]; 0.1250 kg/ha,4.0
same,ORYSAT,[11]; 0.2500 kg/ha,4.0
same,"herbicidal effect rating, ECHORC",[12]; Rate 0.0620 kg/ha,0.0
same,"herbicidal effect rating, ECHORC",[12]; Rate 0.1250 kg/ha,1.0
same,"herbicidal effect rating, ECHORC",[12]; Rate 0.2500 kg/ha,2.0
"Cc1ccc(OCC(=O)OCC2(c3ccccc3)CC2)c(-c2nsc3ccc(-n4c(=O)cc(C(F)(F)F)n(C)c4=O)cc23)c1 [Example 517, Acetic acid, {{2-{5-[3,6-dihydro-3-methyl-2,6-dioxo-4-(trifluoromethyl)-1(2H)-pyrimidinyl]-1,2-benzisothiazol-3-yl}-p-tolyl}oxy}-, (1-phenylcyclopropyl)methyl ester]","herbicidal effect rating, SAGPY",[1]; Rate 0.0320 kg/ha,0.0
same,"herbicidal effect rating, SAGPY",[1]; Rate 0.0620 kg/ha,0.0
same,"herbicidal effect rating, SAGPY",[1]; Rate 0.1250 kg/ha,0.0
same,"herbicidal effect rating, SAGPY",[1]; Rate 0.2500 kg/ha,0.0
same,"herbicidal effect rating, MOOVA",[2]; Rate 0.0320 kg/ha,9.0
same,"herbicidal effect rating, MOOVA",[2]; Rate 0.0620 kg/ha,9.0
same,"herbicidal effect rating, MOOVA",[2]; Rate 0.1250 kg/ha,9.0
same,"herbicidal effect rating, MOOVA",[2]; Rate 0.2500 kg/ha,9.0
same,"herbicidal effect rating, SAGPY",[3]; Rate 0.0320 kg/ha,0.0
same,"herbicidal effect rating, SAGPY",[3]; Rate 0.0620 kg/ha,0.0
same,"herbicidal effect rating, SAGPY",[3]; Rate 0.1250 kg/ha,0.0
same,"herbicidal effect rating, SAGPY",[3]; Rate 0.2500 kg/ha,0.0
same,"herbicidal effect rating, CYPSE",[4]; Rate 0.0320 kg/ha,0.0
same,"herbicidal effect rating, CYPSE",[4]; Rate 0.0620 kg/ha,0.0
same,"herbicidal effect rating, CYPSE",[4]; Rate 0.1250 kg/ha,0.0
same,"herbicidal effect rating, CYPSE",[4]; Rate 0.2500 kg/ha,0.0
same,"herbicidal effect rating, CYPIR",[5]; Rate 0.0320 kg/ha,5.5
same,"herbicidal effect rating, CYPIR",[5]; Rate 0.0620 kg/ha,6.5
same,"herbicidal effect rating, CYPIR",[5]; Rate 0.1250 kg/ha,5.5
same,"herbicidal effect rating, CYPIR",[5]; Rate 0.2500 kg/ha,7.0
same,"herbicidal effect rating, MOOVA",[6]; Rate 0.0320 kg/ha,9.0
same,"herbicidal effect rating, MOOVA",[6]; Rate 0.0620 kg/ha,9.0
same,"herbicidal effect rating, MOOVA",[6]; Rate 0.1250 kg/ha,9.0
same,"herbicidal effect rating, MOOVA",[6]; Rate 0.2500 kg/ha,9.0
same,"herbicidal effect rating, ECHORC",[7]; Rate 0.0320 kg/ha,9.0
same,"herbicidal effect rating, ECHORC",[7]; Rate 0.0620 kg/ha,9.0
same,"herbicidal effect rating, ECHORC",[7]; Rate 0.1250 kg/ha,8.0
same,"herbicidal effect rating, ECHORC",[7]; Rate 0.2500 kg/ha,9.0
same,"herbicidal effect rating, CYPSE",[8]; Rate 0.0320 kg/ha,3.0
same,"herbicidal effect rating, CYPSE",[8]; Rate 0.0620 kg/ha,4.5
same,"herbicidal effect rating, CYPSE",[8]; Rate 0.1250 kg/ha,4.5
same,"herbicidal effect rating, CYPSE",[8]; Rate 0.2500 kg/ha,0.0
same,"herbicidal effect rating, ORYSAT (rice tolerance)",[9]; Rate 0.0320 kg/ha,0.0
same,"herbicidal effect rating, ORYSAT (rice tolerance)",[9]; Rate 0.0620 kg/ha,0.0
same,"herbicidal effect rating, ORYSAT (rice tolerance)",[9]; Rate 0.1250 kg/ha,0.0
same,"herbicidal effect rating, ORYSAT (rice tolerance)",[9]; Rate 0.2500 kg/ha,0.0
same,"herbicidal effect rating, CYPIR",[10]; Rate 0.0320 kg/ha,3.0
same,"herbicidal effect rating, CYPIR",[10]; Rate 0.0620 kg/ha,5.0
same,"herbicidal effect rating, CYPIR",[10]; Rate 0.1250 kg/ha,9.0
same,"herbicidal effect rating, CYPIR",[10]; Rate 0.2500 kg/ha,9.0
same,herbicidal effect rating ORYSAT,[11]; Rate 0.0320 kg/ha,0.0
same,herbicidal effect rating ORYSAT,[11]; Rate 0.0620 kg/ha,0.0
same,herbicidal effect rating ORYSAT,[11]; Rate 0.1250 kg/ha,1.5
same,herbicidal effect rating ORYSAT,[11]; Rate 0.2500 kg/ha,3.0
same,"herbicidal effect rating, ECHORC",[12]; Rate 0.0320 kg/ha,0.0
same,"herbicidal effect rating, ECHORC",[12]; Rate 0.0620 kg/ha,0.0
same,"herbicidal effect rating, ECHORC",[12]; Rate 0.1250 kg/ha,0.0
same,"herbicidal effect rating, ECHORC",[12]; Rate 0.2500 kg/ha,0.0
